{
  "source": "ChEMBL document CHEMBL3045197",
  "about": "“Design and synthesis of new 2-aryl, 3-benzyl-(1,3-oxazolidine or 1,3-thiazolidine)-4-ones as selective cyclooxygenase (COX-2) inhibitors” (Med Chem Res, 2010)",
  "key": {"[1]": {"molecular_target": "Prostaglandin G/H synthase 1 (Ovis aries) (UniProt P05979)", "assay": "Inhibition of Ovis aries (sheep) COX-1 by Chemoiluminescence assay"}, "[2]": {"molecular_target": "Prostaglandin G/H synthase 2 (Ovis aries) (UniProt P79208)", "sequence (P79208 whole entry, looked up)": "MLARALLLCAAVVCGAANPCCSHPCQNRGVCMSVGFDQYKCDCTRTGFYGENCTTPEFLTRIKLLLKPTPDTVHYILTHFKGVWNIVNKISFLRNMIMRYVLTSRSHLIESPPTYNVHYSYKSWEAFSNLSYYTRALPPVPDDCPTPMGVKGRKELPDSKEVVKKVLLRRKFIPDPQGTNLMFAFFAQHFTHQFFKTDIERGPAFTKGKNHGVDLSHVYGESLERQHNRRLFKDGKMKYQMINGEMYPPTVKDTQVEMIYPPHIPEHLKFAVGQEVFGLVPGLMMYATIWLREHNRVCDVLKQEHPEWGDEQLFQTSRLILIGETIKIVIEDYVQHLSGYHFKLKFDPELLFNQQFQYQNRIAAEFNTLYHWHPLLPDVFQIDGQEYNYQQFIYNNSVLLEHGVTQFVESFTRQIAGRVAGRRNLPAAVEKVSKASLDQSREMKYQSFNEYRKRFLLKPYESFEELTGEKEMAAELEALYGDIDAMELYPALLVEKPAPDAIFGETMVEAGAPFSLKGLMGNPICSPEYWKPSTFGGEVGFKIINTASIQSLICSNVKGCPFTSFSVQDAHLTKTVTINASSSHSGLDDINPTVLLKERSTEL", "assay": "Inhibition of Ovis aries (sheep) COX-2 by Chemoiluminescence assay"}, "Ovis aries": {"species": "Ovis aries", "assay": "Selectivity index, ratio of IC50 for Ovis aries (sheep) COX-1 to IC50 for Ovis aries (sheep) COX-2"}},
  "data": [
    {"compound": "CS(=O)(=O)c1ccc(C2SCC(=O)N2Cc2ccccc2)cc1", "note": "(configuration not stated)", "values": [
      {"measurement": "IC50", "setting": "[1]", "value": "> 100000", "unit": "nM"},
      {"measurement": "IC50", "setting": "[2]", "value": 320, "unit": "nM"},
      {"measurement": "Ratio IC50", "setting": "Ovis aries", "value": "> 312"}
    ]},
    {"compound": "CC1OC(c2ccc(S(C)(=O)=O)cc2)N(Cc2ccccc2)C1=O", "note": "(racemic)", "values": [
      {"measurement": "IC50", "setting": "[1]", "value": 85900, "unit": "nM"},
      {"measurement": "IC50", "setting": "[2]", "value": 270, "unit": "nM"},
      {"measurement": "Ratio IC50", "setting": "Ovis aries", "value": 318}
    ]},
    {"compound": "CS(=O)(=O)c1ccc(C2OCC(=O)N2Cc2ccccc2)cc1", "note": "(configuration not stated)", "values": [
      {"measurement": "IC50", "setting": "[1]", "value": "> 100000", "unit": "nM"},
      {"measurement": "IC50", "setting": "[2]", "value": 210, "unit": "nM"},
      {"measurement": "Ratio IC50", "setting": "Ovis aries", "value": "> 476"}
    ]},
    {"compound": "CC1SC(c2ccc(S(C)(=O)=O)cc2)N(Cc2ccccc2)C1=O", "note": "(racemic)", "values": [
      {"measurement": "IC50", "setting": "[1]", "value": 75600, "unit": "nM"},
      {"measurement": "IC50", "setting": "[2]", "value": 340, "unit": "nM"},
      {"measurement": "Ratio IC50", "setting": "Ovis aries", "value": 222}
    ]}
  ]
}
